# Data published in ChEMBL document CHEMBL3046587, “Baseline sensitivity of Monilinia laxa from Greece to fenhexamid and analysis of fenhexamid-resistant mutants” (Crop Prot, 2013).
# Tests used:
# [1] = system: Monilinia laxa; assay: Fungitoxicity against moderately fenhexamid resistant Monilinia laxa MF-6 assessed as reduction in mycelial growth measured at 25 degC after 4 days; type: functional, organism-based; details: MF-6, 96 h
# [2] = system: Monilinia laxa; assay: Fungitoxicity against moderately fenhexamid resistant Monilinia laxa MF-7 assessed as reduction in mycelial growth measured at 25 degC after 4 days; type: functional, organism-based; details: MF-7, 96 h
# [3] = system: Monilinia laxa; assay: Fungitoxicity against highly fenhexamid resistant Monilinia laxa MF-5 assessed as reduction in mycelial growth measured at 25 degC after 4 days; type: functional, organism-based; details: MF-5, 96 h
# [4] = system: Monilinia laxa; assay: Fungitoxicity against moderately fenhexamid resistant Monilinia laxa MF-4 assessed as reduction in mycelial growth measured at 25 degC after 4 days; type: functional, organism-based; details: MF-4, 96 h
# [5] = system: Monilinia laxa; assay: Resistance factor, ratio of EC50 for Monilinia laxa MF-4 to EC50 for wild type Monilinia laxa K2; type: functional
# [6] = system: Monilinia laxa; assay: Fungitoxicity against Monilinia laxa MF-8 assessed as diameter of mycelial colony measured at 25 degC after 4 days; type: functional
# [7] = system: Monilinia laxa; assay: Fungitoxicity against Monilinia laxa MF-20 assessed as diameter of mycelial colony measured at 25 degC after 4 days; type: functional
# [8] = system: Monilinia laxa; assay: Fungitoxicity against Monilinia laxa MLK12 assessed as diameter of mycelial colony measured at 25 degC after 4 days; type: functional
# [9] = system: Monilinia laxa; assay: Resistance factor, ratio of EC50 for Monilinia laxa MF-3 to EC50 for wild type Monilinia laxa K2; type: functional
# [10] = system: Monilinia laxa; assay: Fungitoxicity against Monilinia laxa MF-6 assessed as diameter of mycelial colony measured at 25 degC after 4 days; type: functional
# [11] = system: Monilinia laxa; assay: Fungitoxicity against moderately fenhexamid resistant Monilinia laxa MF-8 assessed as reduction in mycelial growth measured at 25 degC after 4 days; type: functional, organism-based; details: MF-8, 96 h
# [12] = system: Monilinia laxa; assay: Fungitoxicity against Monilinia laxa MF-15 assessed as diameter of mycelial colony measured at 25 degC after 4 days; type: functional
# [13] = system: Monilinia laxa; assay: Fungitoxicity against Monilinia laxa MLP2 assessed as diameter of mycelial colony measured at 25 degC after 4 days; type: functional
# [14] = system: Monilinia laxa; assay: Fungitoxicity against moderately fenhexamid resistant Monilinia laxa MF-22 assessed as reduction in mycelial growth measured at 25 degC after 4 days; type: functional, organism-based; details: MF-22, 96 h
# [15] = system: Monilinia laxa; assay: Fungitoxicity against moderately fenhexamid resistant Monilinia laxa MF-1 assessed as reduction in mycelial growth measured at 25 degC after 4 days; type: functional, organism-based; details: MF-1, 96 h
# [16] = system: Monilinia laxa; assay: Resistance factor, ratio of EC50 for Monilinia laxa MLP2 to EC50 for wild type Monilinia laxa K2; type: functional
# [17] = system: Monilinia laxa; assay: Fungitoxicity against Monilinia laxa MF-3 assessed as diameter of mycelial colony measured at 25 degC after 4 days; type: functional
# [18] = system: Monilinia laxa; assay: Fungitoxicity against Monilinia laxa MF-22 assessed as diameter of mycelial colony measured at 25 degC after 4 days; type: functional
# [19] = system: Monilinia laxa; assay: Fungitoxicity against Monilinia laxa MLX2 assessed as diameter of mycelial colony measured at 25 degC after 4 days; type: functional
# [20] = system: Monilinia laxa; assay: Fungitoxicity against Monilinia laxa MLK6 assessed as diameter of mycelial colony measured at 25 degC after 4 days; type: functional
# [21] = system: Monilinia laxa; assay: Fungitoxicity against Monilinia laxa MF-2 assessed as diameter of mycelial colony measured at 25 degC after 4 days; type: functional
# [22] = system: Monilinia laxa; assay: Fungitoxicity against Monilinia laxa MF-1 assessed as diameter of mycelial colony measured at 25 degC after 4 days; type: functional
# [23] = system: Monilinia laxa; assay: Fungitoxicity against Monilinia laxa MLC2 assessed as diameter of mycelial colony measured at 25 degC after 4 days; type: functional
# [24] = system: Monilinia laxa; assay: Fungitoxicity against Monilinia laxa MLBO7 assessed as diameter of mycelial colony measured at 25 degC after 4 days; type: functional
# [25] = system: Monilinia laxa; assay: Resistance factor, ratio of EC50 for Monilinia laxa MLX2 to EC50 for wild type Monilinia laxa K2; type: functional
# [26] = system: Monilinia laxa; assay: Resistance factor, ratio of EC50 for Monilinia laxa MF-1 to EC50 for wild type Monilinia laxa K2; type: functional
# [27] = system: Monilinia laxa; assay: Resistance factor, ratio of EC50 for Monilinia laxa MF-6 to EC50 for wild type Monilinia laxa K2; type: functional
# [28] = system: Monilinia laxa; assay: Resistance factor, ratio of EC50 for Monilinia laxa MF-7 to EC50 for wild type Monilinia laxa K2; type: functional
# [29] = system: Monilinia laxa; assay: Fungitoxicity against Monilinia laxa MF-5 assessed as diameter of mycelial colony measured at 25 degC after 4 days; type: functional
# [30] = system: Monilinia laxa; assay: Fungitoxicity against highly fenhexamid resistant Monilinia laxa MF-3 assessed as reduction in mycelial growth measured at 25 degC after 4 days; type: functional, organism-based; details: MF-3, 96 h
# [31] = system: Monilinia laxa; assay: Resistance factor, ratio of EC50 for Monilinia laxa MF-22 to EC50 for wild type Monilinia laxa K2; type: functional
# [32] = system: Monilinia laxa; assay: Resistance factor, ratio of EC50 for Monilinia laxa MLC2 to EC50 for wild type Monilinia laxa K2; type: functional
# [33] = system: Monilinia laxa; assay: Resistance factor, ratio of EC50 for Monilinia laxa MF-2 to EC50 for wild type Monilinia laxa K2; type: functional
# [34] = system: Monilinia laxa; assay: Fungitoxicity against Monilinia laxa MF-4 assessed as diameter of mycelial colony measured at 25 degC after 4 days; type: functional
# [35] = system: Monilinia laxa; assay: Resistance factor, ratio of EC50 for Monilinia laxa MF-5 to EC50 for wild type Monilinia laxa K2; type: functional
# [36] = system: Monilinia laxa; assay: Resistance factor, ratio of EC50 for Monilinia laxa MF-20 to EC50 for wild type Monilinia laxa K2; type: functional
# [37] = system: Monilinia laxa; assay: Resistance factor, ratio of EC50 for Monilinia laxa MLK6 to EC50 for wild type Monilinia laxa K2; type: functional
# [38] = system: Monilinia laxa; assay: Resistance factor, ratio of EC50 for Monilinia laxa MLBO7 to EC50 for wild type Monilinia laxa K2; type: functional
# [39] = system: Monilinia laxa; assay: Resistance factor, ratio of EC50 for Monilinia laxa MF-15 to EC50 for wild type Monilinia laxa K2; type: functional
# [40] = system: Monilinia laxa; assay: Fungitoxicity against Monilinia laxa K2 assessed as diameter of mycelial colony measured at 25 degC after 4 days; type: functional
# [41] = system: Monilinia laxa; assay: Resistance factor, ratio of EC50 for Monilinia laxa MF-8 to EC50 for wild type Monilinia laxa K2; type: functional
# [42] = system: Monilinia laxa; assay: Fungitoxicity against wild type Monilinia laxa K2 assessed as reduction in mycelial growth measured at 25 degC after 4 days; type: functional, organism-based; details: K2, 96 h
# [43] = system: Monilinia laxa; assay: Fungitoxicity against Monilinia laxa MF-19 assessed as diameter of mycelial colony measured at 25 degC after 4 days; type: functional
# [44] = system: Monilinia laxa; assay: Fungitoxicity against Monilinia laxa MF-7 assessed as diameter of mycelial colony measured at 25 degC after 4 days; type: functional
# [45] = system: Monilinia laxa; assay: Fungitoxicity against highly fenhexamid resistant Monilinia laxa MF-2 assessed as reduction in mycelial growth measured at 25 degC after 4 days; type: functional, organism-based; details: MF-2, 96 h
# [46] = system: Monilinia laxa; assay: Resistance factor, ratio of EC50 for Monilinia laxa MF-19 to EC50 for wild type Monilinia laxa K2; type: functional
# [47] = system: Monilinia laxa; assay: Resistance factor, ratio of EC50 for Monilinia laxa MLK12 to EC50 for wild type Monilinia laxa K2; type: functional
structure (smiles),measurement,setting,value
COC(=O)Nc1nc2ccccc2[nH]1 [CARBENDAZIM],EC50,[1],0.2 µg/mL
same,EC50,[2],0.3 µg/mL
same,EC50,[3],0.5 µg/mL
same,EC50,[4],0.2 µg/mL
CC1(C(=O)Nc2ccc(O)c(Cl)c2Cl)CCCCC1 [FENHEXAMID],EC50,[1],5.8 µg/mL
same,Ratio EC50,[5],40
same,Activity,[6],58 mm
same,Activity,[7],55 mm
same,Activity,[8],55 mm
same,Ratio EC50,[9],75
same,Activity,[10],56 mm
same,EC50,[11],5.8 µg/mL
same,Activity,[12],56 mm
same,Activity,[13],60 mm
same,EC50,[14],3.7 µg/mL
same,EC50,[15],2.2 µg/mL
same,EC50,[2],2.3 µg/mL
same,Ratio EC50,[16],0.3
same,Activity,[17],60 mm
same,Activity,[18],56 mm
same,Activity,[19],59 mm
same,EC50,[3],6.9 µg/mL
same,Activity,[20],52 mm
same,Activity,[21],54 mm
same,Activity,[22],50 mm
same,Activity,[23],49 mm
same,Activity,[24],60 mm
same,Ratio EC50,[25],1.1
same,Ratio EC50,[26],23
same,Ratio EC50,[27],58
same,EC50,[4],4 µg/mL
same,Ratio EC50,[28],22
same,Activity,[29],57 mm
same,EC50,[30],7.4 µg/mL
same,Ratio EC50,[31],37
same,Ratio EC50,[32],3.7
same,Ratio EC50,[33],111
same,Activity,[34],57 mm
same,Ratio EC50,[35],70
same,Ratio EC50,[36],34
same,Ratio EC50,[37],1.2
same,Ratio EC50,[38],0.4
same,Ratio EC50,[39],31
same,Activity,[40],57 mm
same,Ratio EC50,[41],58
same,EC50,[42],0.1 µg/mL
same,Activity,[43],55 mm
same,Activity,[44],55 mm
same,EC50,[45],11.1 µg/mL
same,Ratio EC50,[46],43
same,Ratio EC50,[47],2.2
CC(Cc1ccc(C(C)(C)C)cc1)CN1C[C@@H](C)O[C@@H](C)C1 (stereo partly specified) [FENPROPIMORPH],EC50,[1],1 µg/mL
same,EC50,[11],0.3 µg/mL
same,EC50,[14],0.5 µg/mL
same,EC50,[15],1 µg/mL
same,EC50,[2],0.1 µg/mL
same,EC50,[3],0.15 µg/mL
same,EC50,[4],0.12 µg/mL
same,EC50,[30],0.11 µg/mL
same,EC50,[42],0.14 µg/mL
same,EC50,[45],0.18 µg/mL
N#Cc1c[nH]cc1-c1cccc2c1OC(F)(F)O2 [FLUDIOXONIL],EC50,[1],0.02 µg/mL
same,EC50,[11],0.05 µg/mL
same,EC50,[14],0.02 µg/mL
same,EC50,[15],0.02 µg/mL
same,EC50,[2],0.01 µg/mL
same,EC50,[3],0.01 µg/mL
same,EC50,[4],0.03 µg/mL
same,EC50,[30],0.01 µg/mL
same,EC50,[42],0.01 µg/mL
same,EC50,[45],0.03 µg/mL
C[Si](Cn1cncn1)(c1ccc(F)cc1)c1ccc(F)cc1 [FLUSILAZOLE],EC50,[1],0.3 µg/mL
same,EC50,[11],0.2 µg/mL
same,EC50,[14],0.4 µg/mL
same,EC50,[15],0.2 µg/mL
same,EC50,[2],0.2 µg/mL
same,EC50,[3],0.1 µg/mL
same,EC50,[4],0.1 µg/mL
same,EC50,[30],0.1 µg/mL
same,EC50,[42],0.1 µg/mL
same,EC50,[45],0.1 µg/mL
CC(C)NC(=O)N1CC(=O)N(c2cc(Cl)cc(Cl)c2)C1=O [IPRODIONE],EC50,[1],0.32 µg/mL
same,EC50,[11],0.35 µg/mL
same,EC50,[14],0.21 µg/mL
same,EC50,[15],0.26 µg/mL
same,EC50,[2],0.23 µg/mL
same,EC50,[3],0.25 µg/mL
same,EC50,[4],0.19 µg/mL
same,EC50,[30],0.25 µg/mL
same,EC50,[42],0.25 µg/mL
same,EC50,[45],0.24 µg/mL
CCCN(CCOc1c(Cl)cc(Cl)cc1Cl)C(=O)n1ccnc1 [PROCHLORAZ],EC50,[1],0.03 µg/mL
same,EC50,[11],0.02 µg/mL
same,EC50,[14],0.02 µg/mL
same,EC50,[15],0.01 µg/mL
same,EC50,[2],0.08 µg/mL
same,EC50,[3],0.01 µg/mL
same,EC50,[4],0.04 µg/mL
same,EC50,[30],0.02 µg/mL
same,EC50,[42],0.01 µg/mL
same,EC50,[45],0.07 µg/mL
COC(=O)N(OC)c1ccccc1COc1ccn(-c2ccc(Cl)cc2)n1 [PYRACLOSTROBIN],EC50,[1],0.1 µg/mL
same,EC50,[11],0.4 µg/mL
same,EC50,[14],0.2 µg/mL
same,EC50,[15],0.2 µg/mL
same,EC50,[2],0.4 µg/mL
same,EC50,[3],0.4 µg/mL
same,EC50,[4],0.3 µg/mL
same,EC50,[30],0.4 µg/mL
same,EC50,[42],0.3 µg/mL
same,EC50,[45],0.5 µg/mL
CCCN(CC)CC1COC2(CCC(C(C)(C)C)CC2)O1 (stereo unspecified) [SPIROXAMINE],EC50,[1],12 µg/mL
same,EC50,[11],3.2 µg/mL
same,EC50,[14],3.3 µg/mL
same,EC50,[15],3.8 µg/mL
same,EC50,[2],3.5 µg/mL
same,EC50,[3],3.5 µg/mL
same,EC50,[4],2.9 µg/mL
same,EC50,[30],3.6 µg/mL
same,EC50,[42],3.5 µg/mL
same,EC50,[45],3.7 µg/mL
CCCCCCCCCCCCCN1CC(C)OC(C)C1 (stereo unspecified) [TRIDEMORPH],EC50,[1],0.6 µg/mL
same,EC50,[11],0.4 µg/mL
same,EC50,[14],0.1 µg/mL
same,EC50,[15],0.4 µg/mL
same,EC50,[2],0.09 µg/mL
same,EC50,[3],0.08 µg/mL
same,EC50,[4],0.12 µg/mL
same,EC50,[30],0.11 µg/mL
same,EC50,[42],0.1 µg/mL
same,EC50,[45],0.07 µg/mL
